From patent US8343536B2, “Biofilm-inhibiting medical products” (Cook Biotech Incorporated, priority 2007, dated 2013)

Key:
Assay type in all cases: cell-based
S. aureus (ATCC #25983) = experiment: Zone-of-inhibition after various rehydration times of coated SIS discs (Example 3)
Method: BisEDT (Molar ratio 1:1.5) and BisBAL (1:1.5) (50 mg each) were obtained from Microbion, Inc. Small intestinal submucosa (SIS) was obtained and processed into 4-layer lyophilized sheets as described in Example 1. The sheets were subsequently cut into 15 mm discs (˜1.76 cm^2) using a disc punch. Bismuth thiols were resuspended in dimethyl sulfoxide (DMSO) and diluted to appropriate concentrations for coating. Discs were coated with the bismuth thiol solutions at a final concentration of 0.35 μg/μl using 50 μl of the solution per disc for a final concentration of 10 μg/cm^2. The discs were subsequently placed in a lyophilizer overnight to remove the DMSO solvent. S. aureus (ATCC #25983) was used as the bacteria for this experiment. Bacteria was grown in Tryptic Soy Broth for 16-24 hours before placing a lawn on Tryptic Soy Agar in 100 mm Petri dishes.
Thirty six samples were tested in total (2 BT*n=3→6*6 rehydration times→36). A lawn of S. aureus was swabbed onto the Tryptic Soy Agar. For the 0 rehydration time point, the bismuth thiol coated disc was placed approximately in the center of the plate and rehydrated with ˜50 μl of sterile saline. Other rehydration times were varied at 5, 10, 20, 30, or 60 minutes. For this, the samples were placed in sterile saline and a timer set for each time. At the appropriate time, samples were removed from the saline and placed approximately in the center of the plate. Plates were incubated inverted for 24 hours at which time pictures were taken with a digital camera. Zones-of-inhibition were compared visually between groups.

A. niger(ATCC #16404) = experiment: Anti-fungal zone-of-inhibition / growth inhibition, coated SIS discs (Example 5); settings: 100 μg/cm^2 on SIS disc
Method: (§1) BisEDT was obtained from Microbion, Inc. as previously described. Small intestinal submucosa (SIS) was obtained and processed into 4-layer lyophilized sheets as described in Example 1. The sheets were subsequently cut into 15 mm discs (˜1.76 cm^2) using a disc punch. BisEDT was resuspended in dimethyl sulfoxide (DMSO) and diluted to appropriate concentrations for coating. Discs were coated with the BisEDT solution at a final concentration of 3.5 μg/μl using 50 μl of the solution per disc for a final concentration of 100 μg/cm^2. The discs were subsequently placed in a lyophilizer overnight to remove the DMSO solvent. A total of 6 coated discs were made—3 each for the two microorganisms investigated. These were compared against 3 uncoated controls discs cut from the same lot of SIS for each microorganism. C. albicans (ATCC #10231) and A. niger(ATCC #16404) were plated on Rose Bengal Chloramphenicol (RBC) in Petri dishes.
(§2) The experiment consisted of a total of […] (3 BisEDT 100 μg/cm^2 coated, 3 uncoated controls) for each fungus. A lawn of either C. albicans or A. niger was swabbed onto the RBC plates. Each disc was rehydrated in sterile saline for ˜5 minutes then placed approximately in the center of the plate. Plates were incubated inverted for ˜48 hours for C. albicans or 5 and 8 days for A. niger at which time pictures were taken with a digital camera. Zones-of-inhibition or growth inhibition was compared visually between groups.

[1] = system: C. albicans (ATCC #10231); experiment: as above; settings: 100 μg/cm^2 on SIS disc, ~48 hours
Method: as §1, §2

For bismuth-1,2-ethanedithiol [BisEDT], the “Effect of rehydration time on zone-of-inhibition, visual comparison” value (S. aureus (ATCC #25983); 10 μg/cm^2, rehydration 0-60 minutes in sterile saline) was “no visual differences between the rehydration time points”, the “Zone-of-inhibition, visual” value (S. aureus (ATCC #25983); 10 μg/cm^2 on SIS disc, rehydration 0, 5, 10, 20, 30 or 60 minutes) was “significant effectiveness in creating a zone-of-inhibition” and the “Mold growth on coated disc” value (A. niger(ATCC #16404); 5 days) was “able to grow up to the disc edge but not on the BisEDT coated disc”. For the same substance, the “Mold growth on coated disc” value (A. niger(ATCC #16404); eight day time point) was “still unable to grow on the BisEDT coated discs” and the “Zone-of-inhibition from the disc edge” value [1] was ~1 mm.
